Where a SMILES comes first, the peptide text is derived from it. Bridges are numbered along the chain shown (N, C = ends).
Key:
biotinylated B7-H3 = target: T1, biotinylated B7-H3 (Homo sapiens, UniProt Q5ZPR3); assay: Surface Plasmon Resonance (SPR) analysis against biotinylated B7-H3; conditions: biotinylated B7-H3, 25° C., 1:1 binding kinetics model, read-out: binding affinity towards B7-H3
T1 sequence (Q5ZPR3 29-534): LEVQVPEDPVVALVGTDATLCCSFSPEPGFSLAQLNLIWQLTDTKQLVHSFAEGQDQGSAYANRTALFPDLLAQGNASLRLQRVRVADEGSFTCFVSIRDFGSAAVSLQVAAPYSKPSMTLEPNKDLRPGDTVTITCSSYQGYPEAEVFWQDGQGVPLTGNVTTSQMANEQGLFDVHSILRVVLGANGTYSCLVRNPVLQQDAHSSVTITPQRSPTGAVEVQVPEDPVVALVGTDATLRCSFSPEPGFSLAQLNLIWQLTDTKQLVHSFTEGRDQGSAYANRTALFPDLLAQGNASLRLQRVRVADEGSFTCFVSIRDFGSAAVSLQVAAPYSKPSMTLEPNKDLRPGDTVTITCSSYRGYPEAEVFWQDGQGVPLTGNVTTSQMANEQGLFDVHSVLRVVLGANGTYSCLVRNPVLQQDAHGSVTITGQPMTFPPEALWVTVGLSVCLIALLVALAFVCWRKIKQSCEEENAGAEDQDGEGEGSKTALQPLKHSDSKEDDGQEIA
From the text: (§1) FIGS. 4A-4G. (FIG. 4A) Selection schematic detailing the selection process for identifying binders against B7-H3. (FIG. 4B) qPCR results of the mTG mediated B7-H3 selection. (FIG. 4C) B7-H3 selection results and complete NGS analysis of B7-H3 hits. (FIG. 4D) NGS data of the selection hits. […] Arrow indicates the peptide pursued for binding validation. (FIG. 4E) EIC ([M+2], 948.91 m/z) traces corresponding to the product of the mTG reaction with linear B1.1 peptide and the synthetic lactam, disulfide peptide. (FIG. 4F) Surface Plasmon Resonance (SPR) analysis of the selected peptide (B1.1), the Met9Nle variant, and the linear variant. […] The selected B1.1 and the Met9Nle variant were analyzed at analyte concentrations of 7.5, 15, 30, 60, 120 nM. The linear variant was analyzed at analyte concentrations of 50, 100, 200, 400, 800 nM. […] (FIG. 4G) Individual SPR curves. Fitted curve and raw data are shown.
(§2) Surface Plasmon Resonance (SPR) analysis. Binding kinetics between our selected peptide (and variants) and biotinylated B7-H3 (B7-H3b) were assessed through SPR analysis using a BIACORE 8K SPR system (GE Healthcare). The running buffer was 1×PBS pH7.5, 0.05% TWEEN® 20 and all analysis was carried out at 25° C. B7-H3b was loaded onto a NeutrAvidin SPR Chip (Series S Sensor Chip NA, 29407997, Cytiva) at a flow rate of […] to a surface density of 1000-1500 response units. Analyte was then injected over a series of five concentrations and quantified by BIACORE single-cycle kinetics method. For our selected peptide (B1.1) and the Met9Nle variant a range of 7.5, 15, 30, 60, 120 nM were run. For the linear variant concentrations of 50, 100, 200, 400, 800 nM were run. Binding sonograms were generated using a standard 1:1 binding kinetics model and kinetics constants determined using standard BIACORE evaluation software.

murine B7-H3 (mB7-H3) = target: T2, murine B7-H3 (mB7-H3) (Mus musculus, UniProt Q8VE98); assay: SPR binding to murine B7-H3
T2 sequence (Q8VE98 29-316): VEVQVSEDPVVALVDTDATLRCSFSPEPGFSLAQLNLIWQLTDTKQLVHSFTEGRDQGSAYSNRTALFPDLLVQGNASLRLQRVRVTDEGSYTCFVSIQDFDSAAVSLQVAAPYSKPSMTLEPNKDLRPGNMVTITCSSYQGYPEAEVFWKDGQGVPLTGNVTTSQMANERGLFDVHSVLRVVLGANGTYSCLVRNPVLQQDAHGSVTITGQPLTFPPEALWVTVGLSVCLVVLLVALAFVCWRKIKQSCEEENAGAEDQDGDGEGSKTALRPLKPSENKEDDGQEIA
Experimental: FIGS. 24A-24C. SPR analysis of the selected peptides B1.1 and JP5. The B1.1 variant was analyzed at analyte concentrations of 7.5, 15, 30, 60, and 120 nM (FIG. 24A) and the JP5 variant was analyzed at analyte concentrations of 22.2, 66.6, 200, 600 and 1800 nM (FIG. 24B). (FIG. 24C) Binding kinetics of each peptide.
as §2
Surface plasmon resonance was used to evaluate binding of B1.1 and JP5 to both human and murine B7-H3 (FIGS. 24A-24C).

B7-H3 [1] = assay: kd (s^-1)
From the text: (§3) Table printed on a drawing sheet, FIG. 4F
Head of the field: kd (s^-1)
as §1, with “The patent's description of the figure: FIGS.” for “FIGS.”
(§4) First copying reader's note: Brackets drawn on the SELECTED and MET9NLE sequences join C to C (above) and Q to K (below), marking a bicyclic peptide; LINEAR has no brackets.
(§5) Where the first naming reader finds the target: passage: Binding affinities were assessed for each peptide by surface plasmon resonance (SPR) against biotinylated B7-H3.

B7-H3 [2] = assay: ka (M^-1s^-1)
From the text: as §3
Head of the field: ka (M^-1s^-1)
as §1, with “The patent's description of the figure: FIGS.” for “FIGS.”
as §4, §5

Kd (biotinylated B7-H3): 43.5 nM
KD (murine B7-H3 (mB7-H3)): binds to murine B7-H3
kd (s^-1) (B7-H3 [1]): 6.74e^-3
Structure (SMILES): CSCC[C@@H]1NC(=O)[C@H](CO)NC(=O)[C@H](Cc2c[nH]cn2)NC(=O)[C@@H]2CSSC[C@H](NC(=O)[C@H]([C@@H](C)O)NC(=O)[C@H](Cc3ccc(O)cc3)NC(=O)[C@H](Cc3ccccc3)NC1=O)C(=O)N[C@H](C(=O)N[C@@H](CO)C(=O)NCC(N)=O)CCCCNC(=O)CC[C@H](NC(=O)[C@H](CC(C)C)NC(=O)[C@H](C)NC(=O)[C@H](Cc1c[nH]c3ccccc13)NC(C)=O)C(=O)N[C@@H](CC(C)C)C(=O)N2 [B1.1, acWALQLCHSMFYTCKSG] (Ac-WALELCHSMFYTCKSG-NH2; lactam 4-14; disulfide 6-13)
ka (M^-1s^-1) (B7-H3 [2]): 1.55e^5

— patent US20260191974A1, “B7-H3 TARGETING LIGANDS AND METHODS OF USE” (The University of North Carolina at Chapel Hill, priority 2022, published 2026)
